Measured values from US6329547A, “Vinylbenzene derivatives” (Santen Pharmaceutical Co., Ltd., priority 1998, dated 2001).

Columns and labels:
[1] = tested on: bovine cultured trabecular meshwork cells; assay: Effects on morphology of trabecular meshwork cells (change in cell area by image analysis); type: cell-based; conditions: Bos taurus, 3 h, 37° C., three hours, read-out: EC50 (concentration required to reduce the cell area of the trabecular meshwork cells by 50%)
Description: A possibility has been reported that drugs having effects of increasing aqueous humor outflow can be found by evaluating effects of drugs on morphology of cultured trabecular meshwork cells (Invest. Ophthalmol. Vis. Sci., 33, 2631-2640 (1992)). Accordingly, effects of the present compounds on morphology of bovine cultured trabecular meshwork cells were studied in the similar manner to the method described in the above-mentioned literature. Experimental Method Morphological changes in bovine cultured trabecular meshwork cells by adding the present compounds were quantitatively evaluated by image analysis. […] Bovine trabecular meshwork cells (passage number 1 to 5) cultured in a basal medium for mammalian cell culture d-MEM (Dulbecco's Modified Eagle Medium, manufactured by Gibco Co., Ltd.) containing fetal bovine serum (10%), amphotericin B (2.5 μg/ml) and gentamicin (50 μg/ml) were treated with a trypsin-EDTA solution (0.05% trypsin, 0.53 mM EDTA·4 Na) 24 hours before the later drug treatment and seeded in a 24-well plate (10^4 cells/well). Twelve hours before the later drug treatment, the cells were washed with phosphate-buffered physiological saline, and then the medium was replaced by D-MEM containing amphotericin B (2.5 μg/ml) and gentamicin (50 μg/ml) (hereinafter referred to as "medium A"). […] A test compound was dissolved in dimethyl sulfoxide (DMSO), and the medium A was added to the solution, followed by sterilizing the solution by filtration. The medium A was further added to the solution to dilute it at a prescribed concentration. This diluted solution was maintained isothermally under a 5% carbon dioxide gas atmosphere at 37° C. for one hour, from one hour before the later drug treatment to prepare a test compound solution. Method of Measurement First, cells were photographed using a well-scanner one hour before the drug treatment. Next, the medium of the cells was replaced by the test compound solution, and the cells were treated with the drug and incubated under a 5% carbon dioxide gas atmosphere at 37° C. for three hours. Then, the same cells as those photographed one hour before the drug treatment were photographed using the well-scanner. Image Analysis Photographed cell images were incorporated from the photographs into an image analysis system with a CCD camera (manufactured by […] Co., Ltd.). Outlines of the incorporated cell images were traced, and areas were measured. Degrees of the morphological changes made by the test compounds on the trabecular meshwork cells are expressed by the following rates of changes in areas (%).

[2] = tested on: trabecular meshwork cells; conditions: Japanese Examined Patent Publication No. 13013/1995; cited from earlier work
[3] = tested on: cynomolgus monkeys (intraocular pressure); assay: Intraocular pressure-lowering effects by anterior chamber administration; type: in vivo, cynomolgus monkey; conditions: 10 μl of 10^-3 M, 1% DMSO into anterior chamber, vehicle in other eye
Description: Healthy male cynomolgus monkeys weighing 4.0 to 7.0 kg and being four to seven years old were used as experimental animals.
A test compound to be used was dissolved in dimethyl sulfoxide (DMSO), and then phosphate-buffered physiological saline was added to the solution to dilute it at a prescribed concentration (10^-3 M, 1% DMSO), followed by sterilizing the solution by filtration to prepare a test compound solution.
Only vehicle was administered into the other eye.
The intraocular pressure was measured with an applanation tonometer immediately before and prescribed periods after administering the test compound. […]
IOP(D-t): Intraocular pressure of the eye into which the test compound was administered, measured (t) hours after administering the test compound
IOP(D-0): Intraocular pressure of the eye into which the test compound was administered, measured immediately before administering the test compound
IOP(V-t): Intraocular pressure of the eye into which the vehicle was administered, measured (t) hours after administering the vehicle
IOP(V-0): Intraocular pressure of the eye into which the vehicle was administered, measured immediately before administering the vehicle

[4] = tested on: laser-induced high intraocular pressure monkey models (intraocular pressure); assay: Intraocular pressure-lowering effects by instillation using laser-induced high intraocular pressure animal models; type: in vivo, cynomolgus monkey; conditions: for Intraocular pressure change difference: 0.3% solution instilled twice a day, six hours after morning instillation, vs vehicle, average of five eyes
Description: A method of evaluating intraocular pressure-lowering effects of the drugs by instilling them into laser-induced high intraocular pressure monkey models has been reported (Arch. Opththalmol., 105, 249-252 (1987)). Accordingly, intraocular pressure-lowering effects by instilling the present compound were studied in the similar manner to the method described in the above-mentioned literature.
Male cynomolgus monkeys weighing 5 to 6 kg were used for experiment. Five eyes of four monkeys of which intraocular pressure had been elevated by irradiating trabecular meshwork of the monkeys at 100 to 150 spots every one week with an argon laser (Coherent Radiation, Models 800) were used. Laser irradiation conditions were set at 1000 mW and 0.2 sec.
Preparation of Test Compound Solution
A test compound was dissolved in purified water, then concentrated glycerin and sodium chloride were added to the solution to adjust osmotic pressure to 1, and 0.1 M aqueous sodium hydroxide solution was added thereto to adjust pH to 7.4 and to prepare a 0.3% solution. Then, the solution was sterilized by filtration to prepare a test compound solution.
Method of Administering Drugs
First, in order to study effects of a vehicle on intraocular pressure, only vehicle was instilled twice a day (at 10 a.m. and 5 p.m.) for one week continuously. Then, the test compound solution was instilled twice a day (at 10 a.m. and 5 p.m.) for one week continuously.
Intraocular pressure was measured with an applanation tonometer before administering the drug and a prescribed period after the instillation. Chlorpromazine (1 mg/kg) was administered intramuscularly to the cynomolgus monkey one hour before the measurement to sedate the monkey, one drop of a 0.4% oxybuprocaine hydrochloride eyedrops, which is a local anesthetic, was instilled into the monkey, and then the intraocular pressure was measured.
Intraocular pressure change difference (mmHg)=[IOP(D-6)-IOP(D-0)]-[IOP(V-6)-IOP(V-0)]
IOP(D-6): Intraocular pressure measured six hours after the morning instillation of the test compound solution
IOP(D-0): Intraocular pressure measured before administering the test compound solution
IOP(V-6): Intraocular pressure measured six hours after the morning instillation of the vehicle
IOP(V-0): Intraocular pressure measured before administering the vehicle

C=C(CC)C(=O)c1ccc(OCC(=O)O)c(Cl)c1Cl [Ethacrynic acid, reference compound]
EC50 [1]: 62000 nM | effect on intraocular pressure and trabecular meshwork cells reported in the literature [2]: lowering intraocular pressure by making a morphological change in trabecular meshwork cells and increasing the rate of aqueous humor outflow | Maximum intraocular pressure-lowering value ([3]; average value of five samples): 2.0 mmHg

C=C(C(=O)c1ccc(/C(C)=C/C(=O)O)cc1)c1ccccc1 [Compound No. 8-10, β-Methyl-4-(2-phenylacryloyl)cinnamic acid]
EC50 [1]: 2900 nM

C=C(C(=O)c1ccc(/C=C/C(=O)O)cc1)c1ccccc1 [Compound No. 8-7, 4-(2-Phenylacryloyl)cinnamic acid]
EC50 [1]: 810 nM | Maximum intraocular pressure-lowering value ([3]; average value of six samples): 7.0 mmHg | Intraocular pressure change difference ([4]; 1st day): +5.8 mmHg | Intraocular pressure change difference ([4]; 2nd day): -7.6 mmHg | Intraocular pressure change difference ([4]; 3rd day): -6.6 mmHg | Intraocular pressure change difference ([4]; 4th day): -1.2 mmHg | Intraocular pressure change difference ([4]; 5th day): -6.6 mmHg | Intraocular pressure change difference ([4]; 6th day): -8.6 mmHg | Intraocular pressure change difference ([4]; 7th day): -2.8 mmHg | intraocular pressure-lowering effect (in words) ([4]; instillation, 0.3% solution twice a day for one week): excellent intraocular pressure-lowering effect | disorder in an anterior segment of the eye ([4]; throughout all instillation periods, 0.3% solution twice a day for one week): No disorder was recognized in an anterior segment of the eye

C=C(C(=O)c1ccc(/C=C(\C)C(=O)O)cc1)c1ccccc1 [Compound No. 8-9, α-Methyl-4-(2-phenylacryloyl)cinnamic acid]
EC50 [1]: 3900 nM

C=C(C(=O)c1ccc(/C=C/C(=O)O)cc1)c1ccc([N+](=O)[O-])cc1 [Compound No. 8-2, 4-[2-(4-Nitrophenyl)acryloyl]cinnamic acid]
EC50 [1]: 1700 nM

C=C(C(=O)c1ccc(/C=C/C(=O)O)cc1)c1c(F)c(F)c(F)c(F)c1F [Compound No. 8-1, 4-[2-(2,3,4,5,6-Pentafluorophenyl)acryloyl]cinnamic acid]
EC50 [1]: 660 nM
